Reference: patent publication US9403830B2, “Inhibitors of leukotriene production” (Boehringer Ingelheim International GmbH, priority 2012, dated 2016)

Experiments:
[1] = system: LTB4 synthesis in human whole blood; test: human whole blood (HWB) assay, inhibition of LTB4 production; assay type: cell-based; details: heparinized human whole blood, calcimycin 20 μM stimulation, plasma LTB4
Summary of the method: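 Heparinized human whole blood preincubated with compound 15 min at 37 °C, then stimulated with 20 μM (final) calcimycin for 30 min at 37 °C. Plasma LTB4 measured by antibody-based HTRF; IC50 reported.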

human LTA4 hydrolase = target: T1, human LTA4 hydrolase (Homo sapiens, UniProt P09960); test: LTA4H Enzyme assay (peptidase, Arg-AMC cleavage); assay type: biochemical; details: LTA4H enzyme 1 nM, Arg-AMC substrate 50 μM, room temperature 1 h, fluorescence 380/460 nm
T1 sequence (P09960 1-611): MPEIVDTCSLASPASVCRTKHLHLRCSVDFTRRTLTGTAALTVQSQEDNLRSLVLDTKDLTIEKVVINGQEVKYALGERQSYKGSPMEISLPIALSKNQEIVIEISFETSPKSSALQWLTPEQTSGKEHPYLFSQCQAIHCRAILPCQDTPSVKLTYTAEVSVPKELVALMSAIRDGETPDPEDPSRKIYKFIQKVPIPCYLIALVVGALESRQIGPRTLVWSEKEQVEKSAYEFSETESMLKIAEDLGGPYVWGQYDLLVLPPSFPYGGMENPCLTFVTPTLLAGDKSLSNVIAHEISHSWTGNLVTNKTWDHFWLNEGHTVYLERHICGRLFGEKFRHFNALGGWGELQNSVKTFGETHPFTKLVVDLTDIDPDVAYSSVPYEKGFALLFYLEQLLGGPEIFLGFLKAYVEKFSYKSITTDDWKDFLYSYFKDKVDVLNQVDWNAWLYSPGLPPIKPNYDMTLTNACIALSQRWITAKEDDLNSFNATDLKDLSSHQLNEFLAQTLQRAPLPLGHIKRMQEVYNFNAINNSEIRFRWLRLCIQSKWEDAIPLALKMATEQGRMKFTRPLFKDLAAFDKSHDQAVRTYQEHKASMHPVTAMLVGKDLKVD
Summary of the method: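 Human LTA4H (1 nM final) incubated with compound and Arg-AMC (50 μM final) in 50 mM Tris-HCl pH 7.5, 100 mM KCl, 0.5% BSA, 1 h at room temperature. Product read as AMC fluorescence (ex 380/em 460 nm); IC50 reported.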

SMILES	IC50 [1] [nM]	IC50 (human LTA4 hydrolase) [nM]
c1cc(-c2ccc(Oc3ccc4nn(CCNCC5CCOCC5)cc4c3)cc2)[nH]n1 [Example 206, (2-{5-[4-(2H-Pyrazol-3-yl)-phenoxy]-indazol-2-yl}-ethyl)-(tetrahydro-pyran-4-ylmethyl)-amine]	210	0.42
c1cncc(Cc2nc3cc(Oc4ccc(-c5ccn[nH]5)cc4)ccc3[nH]2)c1 [Example 73, 5-[4-(2H-Pyrazol-3-yl)-phenoxy]-2-pyridin-3-ylmethyl-1H-benzoimidazole]	330	0.36
CO[C@H]1CCN(Cc2nc3cc(Oc4ccc(-c5ccn[nH]5)cc4)ccc3[nH]2)C1 [Example 226, 2-((S)-3-Methoxy-pyrrolidin-1-ylmethyl)-5-[4-(2H-pyrazol-3-yl)-phenoxy]-1H-benzoimidazole]	170	0.3
O=C(c1cn2ccc(Oc3ccc(-c4ccn[nH]4)cc3)cc2n1)N1CCOCC1 [Example 258, Morpholin-4-yl-{7-[4-(2H-pyrazol-3-yl)-phenoxy]-imidazo[1,2-a]pyridin-2-yl}-methanone]	2000	10
CN(Cc1nc2cc(Oc3ccc(-c4ccn[nH]4)cc3)ccc2[nH]1)CC1CCCOC1 (stereo not shown) [Example 92, Methyl-{5-[4-(2H-pyrazol-3-yl)-phenoxy]-1H-benzoimidazol-2-ylmethyl}-(tetrahydro-pyran-3-ylmethyl)-amine]	140	0.11
COC[C@@H]1CCCN1Cc1nc2cc(Oc3ccc(-c4ccn[nH]4)cc3)ccc2[nH]1 [Example 173, 2-((S)-2-Methoxymethyl-pyrrolidin-1-ylmethyl)-5-[4-(2H-pyrazol-3-yl)-phenoxy]-1H-benzoimidazole]	130	0.16
OC1CN(Cc2ccc3c(ccn3Cc3ccc(-c4ccn[nH]4)cc3)c2)C1 [Example 216, 1-{1-[4-(2H-Pyrazol-3-yl)-benzyl]-1H-indol-5-ylmethyl}-azetidin-3-ol]	110	0.2
c1cc(-c2ccc(Oc3ccc4nc(CN5CCOCC5)oc4c3)cc2)[nH]n1 [Example 114, 2-morpholin-4-ylmethyl-6-[4-(2H-pyrazol-3-yl)-phenoxy]-benzoxazole]	500	0.75
O=C1OCCCN1C1CCN(Cc2ccc3cc(Oc4ccc(-c5ccn[nH]5)cn4)ccc3n2)CC1 [Example 190, 3-(1-{6-[5-(2H-Pyrazol-3-yl)-pyridin-2-yloxy]-quinolin-2-ylmethyl}-piperidin-4-yl)-[1,3]oxazinan-2-one]	170	0.53
O=C1CCC(c2cn3cc(Oc4ccc(-c5ccn[nH]5)cc4)ccc3n2)CN1 (stereo not shown) [Example 67, 5-{6-[4-(2H-Pyrazol-3-yl)-phenoxy]-imidazo[1,2-a]pyridin-2-yl}-piperidin-2-one]	480	1.4
CC(=O)NC1CCN(CCc2coc3cc(Oc4ccc(-c5ccn[nH]5)cn4)ccc23)CC1 [Example 133, N-[1-(2-{6-[5-(2H-Pyrazol-3-yl)-pyridin-2-yloxy]-benzofuran-3-yl}-ethyl)-piperidin-4-yl]-acetamide]	150	0.35
COCCN1CCN(Cc2nc3cc(Oc4ccc(-c5ccn[nH]5)cc4)ccc3[nH]2)CC1 [Example 61, 2-[4-(2-Methoxy-ethyl)-piperazin-1-ylmethyl]-5-[4-(2H-pyrazol-3-yl)-phenoxy]-1H-benzoimidazole]	140	0.21
O=S1(=O)CCN(Cc2ccc3cc(Oc4ccc(-c5cc[nH]n5)cn4)ccc3n2)CC1 [Example 242, 2-(1,1-Dioxo-1-λ-6-thiomorpholin-4-ylmethyl)-6-[5-(1H-pyrazol-3-yl)-pyridin-2-yloxy]-quinoline]	210	1.6
O=C(N1CCN(Cc2ccc3cc(Oc4ccc(-c5ccn[nH]5)cc4)ccc3n2)CC1)C1(O)CC1 [Example 15, (1-hydroxy-cyclopropyl)-(4-{6-[4-(2H-pyrazol-3-yl)-phenoxy]-quinolin-2-ylmethyl}-piperazin-1-yl)-methanone]	810	2.4
